Assay results published in paper PMC10920834, “Synthesis, anticancer activity, and molecular docking of half-sandwich iron(II) cyclopentadienyl complexes with maleimide and phosphine or phosphite ligands” (Scientific Reports, 2024).

Assays:
Type in all cases: cell-based, human
A549 cells = experiment: Cell viability resazurin assay, A549 cells; conditions: for viability of A549 cells relative to control: ± SD
Experimental: (§1) The A549 (human non-small cell lung cancer) cell line was obtained from the American Type Culture Collection (ATCC) and cultured in Dulbecco's Modified Eagle Medium (DMEM) with 10% fetal bovine serum (FBS), 2 mM L-Glutamine, 25 mM HEPES and penicillin/streptomycin solution (100 U/ml and 100 µg/ml, respectively). The HL-60 (human promyelocytic leukemia) cell line was also obtained from the American Type Culture Collection (ATCC) and cultured in Iscove’s Modified Dulbecco's Medium (IMDM) with 15% fetal bovine serum (FBS), 2 mM L-Glutamine, 25 mM HEPES and penicillin/streptomycin solution (100 U/ml and 100 µg/ml, respectively). Both cell lines were cultured in flasks at 37 °C in 5% CO2 and sub-cultured every 2–3 days to maintain exponential growth.
(§2) Firstly, resazurin salt powder was dissolved in sterile 1 × PBS. Cells were then seeded on the 96-well plates in the count of 1 × 10^4 in the case of HL-60 cells and of 5 × 10^4 for PBM cells and of 5 × 10^3 for A549 cells per well. A549 cells were seeded 24 h prior to treatment with the complexes to allow cell adherence to 96-well plate. Iron(II) complexes were added to wells to obtain final concentrations of 0.5, 1, 2.5, 5, 10, 25, 50, 100 and 250 μM. Subsequently, plates were incubated at 37 °C in 5% CO2 for 2 h and 24 h. After that 10 μl of resazurin salt was added to each well and plates again were incubated in 37 °C in 5% CO2 for 2 h. Finally, fluorescence was measured with microplate reader Synergy HT (Bio-Tek Instruments, USA) using an excitation wavelength of 530/25 and an emission wavelength of 590/35 nm. The effects of iron(II) complexes were calculated as the percentage of control fluorescence. IC50 (half maximal inhibitory concentration) values were calculated using a website algorithm (https://www.aatbio.com/tools/ic50-calculator). All assays were performed in octuplicate.

HL-60 cells [1] = experiment: Alkaline comet assay, HL-60 cells; conditions: 2 h incubation, 1-50 μM tested
Experimental: Selected iron(II) complexes were added to the suspension of the cells to give final concentrations of 1, 5, 10, 25 and 50 μM. HL-60 and A549 cells were incubated with the complexes for 2 h at 37 °C. The comet assay was performed under alkaline conditions according to the procedure of Tokarz et al.[45]. […] Next, the cells were lysed for 1 h at 4 °C in a buffer containing 2.5 M NaCl, 0.1 M EDTA, 10 mM Tris, 1% Triton X-100, pH 10. Following the lysis, the slides were placed in an electrophoresis unit. DNA was allowed to unwind for 20 min in the solution containing 300 mM NaOH and 1 mM EDTA, pH > 13. […] After separation, the slides were washed in water, drained, stained with 2 μg/ml DAPI and covered with cover slips. As a prevention from additional DNA damage, the procedure described above was conducted under limited light or in the dark. Each experiment included the positive control—cells incubated with H2O2 at 20 µM for 15 min on ice (data not shown).
The comets obtained after single cell gel electrophoresis were analysed in the following manner. […] Hundred images of singular comets were randomly selected from each sample and the mean value of DNA in comet tail was taken as an index of DNA damage (expressed in percent).

HL-60 cells [2] = experiment: Cell viability resazurin assay, HL-60 cells; conditions: for viability of HL-60 cells relative to control: ± SD
Experimental: as §1, §2

PBM cells = experiment: Cell viability resazurin assay, PBM cells; conditions: for viability of PBM cells relative to control: ± SD
From the text: Peripheral blood mononuclear (PBM) cells were isolated from a leukocyte-buffy coat collected from the blood of healthy, non-smoking donors at the Blood Bank in Lodz, Poland. The study protocol received approval from the Committee for Research on Human Subjects of the University of Lodz (17/KBBN-UŁ/III/2019). The initial step of isolation process involved mixing buffy coats with PBS in a 1:1 ratio. Subsequently, the mixture was centrifuged using a density gradient of Lymphosep (Cytogen, Zgierz, Poland) at 2200 RPM for 20 min, employing the lowest values for acceleration and deceleration. PBM cells were collected and washed three times by centrifugation with 1 × PBS. Following isolation, the cells were suspended in RPMI 1640 medium.
as §2

## CCOP(OCC)OCC.O=C1C=CC(=O)[N-]1.[C-]#[O+].[Fe+2].c1cc[cH-]c1 [3a]
A549 cells; 2 h incubation, 0.5 µM
  viability of A549 cells relative to control: 100.11 ± 13.46%
A549 cells; 2 h incubation, 1 µM
  viability of A549 cells relative to control: 89.02 ± 8.33%
A549 cells; 2 h incubation, 2.5 µM
  viability of A549 cells relative to control: 86.36 ± 7.43%
A549 cells; 2 h incubation, 5 µM
  viability of A549 cells relative to control: 85.49 ± 7.39%
A549 cells; 2 h incubation, 10 µM
  viability of A549 cells relative to control: 83.61 ± 12.73%
A549 cells; 2 h incubation, 25 µM
  viability of A549 cells relative to control: 82.29 ± 5.9%
A549 cells; 2 h incubation, 50 µM
  viability of A549 cells relative to control: 82.69 ± 3.89%
A549 cells; 2 h incubation, 100 µM
  viability of A549 cells relative to control: 74.97 ± 6.81%
A549 cells; 2 h incubation, 250 µM
  viability of A549 cells relative to control: 68.50 ± 8.56%
A549 cells; 24 h incubation
  IC50: > 250 µM
  cytotoxicity against A549 cells, in words: did not show cytotoxicity
A549 cells; 24 h incubation, 0.5 µM
  viability of A549 cells relative to control: 80.91 ± 12.58%
A549 cells; 24 h incubation, 1 µM
  viability of A549 cells relative to control: 70.97 ± 10.92%
A549 cells; 24 h incubation, 2.5 µM
  viability of A549 cells relative to control: 68.70 ± 18.12%
A549 cells; 24 h incubation, 5 µM
  viability of A549 cells relative to control: 68.55 ± 13.94%
A549 cells; 24 h incubation, 10 µM
  viability of A549 cells relative to control: 71.63 ± 17.67%
A549 cells; 24 h incubation, 25 µM
  viability of A549 cells relative to control: 131.92 ± 19.26%
A549 cells; 24 h incubation, 50 µM
  viability of A549 cells relative to control: 131.87 ± 25.64%
A549 cells; 24 h incubation, 100 µM
  viability of A549 cells relative to control: 153.54 ± 19.26%
A549 cells; 24 h incubation, 250 µM
  viability of A549 cells relative to control: 95.62 ± 13.21%
A549 cells; 24 h incubation, concentration not given
  A549 cell viability, increase with increasing concentrations to: 153%
HL-60 cells [1]
  DNA damage in HL-60 cells (alkaline comet assay), in words: DNA damage at the concentrations of 10, 25 and 50 μM
HL-60 cells [2]; 2 h incubation, 0.5 µM
  viability of HL-60 cells relative to control: 103.48 ± 2.11%
HL-60 cells [2]; 2 h incubation, 1 µM
  viability of HL-60 cells relative to control: 105.44 ± 1%
HL-60 cells [2]; 2 h incubation, 2.5 µM
  viability of HL-60 cells relative to control: 102.35 ± 0.54%
HL-60 cells [2]; 2 h incubation, 5 µM
  viability of HL-60 cells relative to control: 100.13 ± 1.86%
HL-60 cells [2]; 2 h incubation, 10 µM
  viability of HL-60 cells relative to control: 101.73 ± 3.47%
HL-60 cells [2]; 2 h incubation, 25 µM
  viability of HL-60 cells relative to control: 97.68 ± 2.4%
HL-60 cells [2]; 2 h incubation, 50 µM
  viability of HL-60 cells relative to control: 93.65 ± 1.73%
HL-60 cells [2]; 2 h incubation, 100 µM
  viability of HL-60 cells relative to control: 87.54 ± 2.53%
HL-60 cells [2]; 2 h incubation, 250 µM
  viability of HL-60 cells relative to control: 30.8 ± 1.55%
HL-60 cells [2]; 24 h incubation
  IC50: 15.9 µM
HL-60 cells [2]; 24 h incubation, 0.5 µM
  viability of HL-60 cells relative to control: 107.33 ± 1.24%
HL-60 cells [2]; 24 h incubation, 1 µM
  viability of HL-60 cells relative to control: 109.38 ± 4%
HL-60 cells [2]; 24 h incubation, 2.5 µM
  viability of HL-60 cells relative to control: 112.36 ± 1.5%
HL-60 cells [2]; 24 h incubation, 5 µM
  viability of HL-60 cells relative to control: 106.89 ± 3.43%
HL-60 cells [2]; 24 h incubation, 10 µM
  viability of HL-60 cells relative to control: 89 ± 3.39%
HL-60 cells [2]; 24 h incubation, 25 µM
  viability of HL-60 cells relative to control: 46.28 ± 0.82%
HL-60 cells [2]; 24 h incubation, 50 µM
  viability of HL-60 cells relative to control: 38.62 ± 0.52%
HL-60 cells [2]; 24 h incubation, 100 µM
  viability of HL-60 cells relative to control: 39.69 ± 0.83%
HL-60 cells [2]; 24 h incubation, 250 µM
  viability of HL-60 cells relative to control: 17.5 ± 0.5%
PBM cells; 2 h incubation, 0.5 µM
  viability of PBM cells relative to control: 83.62 ± 1.79%
PBM cells; 2 h incubation, 1 µM
  viability of PBM cells relative to control: 82.59 ± 3.38%
PBM cells; 2 h incubation, 2.5 µM
  viability of PBM cells relative to control: 83.52 ± 1.8%
PBM cells; 2 h incubation, 5 µM
  viability of PBM cells relative to control: 86.67 ± 4.18%
PBM cells; 2 h incubation, 10 µM
  viability of PBM cells relative to control: 89.89 ± 2.91%
PBM cells; 2 h incubation, 25 µM
  viability of PBM cells relative to control: 98.19 ± 4.2%
PBM cells; 2 h incubation, 50 µM
  viability of PBM cells relative to control: 98.5 ± 3.37%
PBM cells; 2 h incubation, 100 µM
  viability of PBM cells relative to control: 97.79 ± 4.89%
PBM cells; 2 h incubation, 250 µM
  viability of PBM cells relative to control: 98.17 ± 2.87%
PBM cells; 24 h incubation
  IC50: > 250 µM
PBM cells; 24 h incubation, 0.5 µM
  viability of PBM cells relative to control: 102.49 ± 0.39%
PBM cells; 24 h incubation, 1 µM
  viability of PBM cells relative to control: 104.14 ± 1.97%
PBM cells; 24 h incubation, 2.5 µM
  viability of PBM cells relative to control: 104.31 ± 0.56%
PBM cells; 24 h incubation, 5 µM
  viability of PBM cells relative to control: 102.43 ± 1.43%
PBM cells; 24 h incubation, 10 µM
  viability of PBM cells relative to control: 99.21 ± 0.78%
PBM cells; 24 h incubation, 25 µM
  viability of PBM cells relative to control: 98.34 ± 0.97%
PBM cells; 24 h incubation, 50 µM
  viability of PBM cells relative to control: 98.58 ± 2.84%
PBM cells; 24 h incubation, 100 µM
  viability of PBM cells relative to control: 102.37 ± 3.3%
PBM cells; 24 h incubation, 250 µM
  viability of PBM cells relative to control: 94.72 ± 3.88%
